# According to patent US20110251069A1, “ISOXAZOLE DERIVATIVES FOR USE AS PLANT GROWTH REGULATORS” (SYNGENTA CROP PROTECTION LLC, priority 2008, published 2011):
# System: wheat plants cultivar (cv.). Riband
# Experiment: Biological evaluation of plant growth regulation effects on wheat
# Assay type: in vivo
# Details: 200 ppm; 2 weeks old wheat plants cv. Riband sprayed with formulated compound; assessed after 8 days at 22° C. and 80% r. h. in a greenhouse
# Procedure: Biological Evaluation of Plant Growth Regulation Effects on Wheat
# 2 weeks old wheat plants cultivar (cv.). Riband were treated with the formulated test compound in a spray chamber. After an incubation period of 8 days at 22° C. and 80% relative humidity (r. h.) in a greenhouse, the plant growth regulating effects were assessed.
structure (smiles),measurement,value
"OC(c1cccnc1)c1c(-c2ccccc2Cl)csc1-c1ccc(F)cc1F (stereo not shown) [Compound 175, 2-(2,4-Difluorophenyl)-4-(2-chlorophenyl)-3-[(3-pyridyl)hydroxymethyl]-thiophene]",plant growth regulating effects,plant height decrease
